Experiments:
[1] = biological target: T1, AdpA (AdpAHis6) (Streptomyces coelicolor, UniProt Q9L062); assay: SPR of AdpA on immobilised oriC DNA; glutaraldehyde cross-linking of AdpA-oriC complexes; conditions: 3 mM ATP in SPR, increasing ATP in cross-linking with 100 nM AdpA; HBS200 buffer pH 7.4, 10 mM MgOAc; 283-bp oriC fragment; inhibits DNA binding; direct ATP binding not measured
[2] = biological target: DnaA (DnaAHis6) (Streptomyces coelicolor, UniProt P27902); assay: SPR of DnaA on immobilised oriC DNA with and without ATP; conditions: 3 mM ATP; HBS200 buffer pH 7.4, 10 mM MgOAc; 283-bp oriC fragment; promotes DNA binding; direct ATP binding not measured
[3] = biological target: T1, AdpA (AdpAHis6); assay: effect on AdpA-oriC complex formation; conditions: inhibits DNA binding; direct ADP binding not measured

T1 sequence (Q9L062 entry or part of it): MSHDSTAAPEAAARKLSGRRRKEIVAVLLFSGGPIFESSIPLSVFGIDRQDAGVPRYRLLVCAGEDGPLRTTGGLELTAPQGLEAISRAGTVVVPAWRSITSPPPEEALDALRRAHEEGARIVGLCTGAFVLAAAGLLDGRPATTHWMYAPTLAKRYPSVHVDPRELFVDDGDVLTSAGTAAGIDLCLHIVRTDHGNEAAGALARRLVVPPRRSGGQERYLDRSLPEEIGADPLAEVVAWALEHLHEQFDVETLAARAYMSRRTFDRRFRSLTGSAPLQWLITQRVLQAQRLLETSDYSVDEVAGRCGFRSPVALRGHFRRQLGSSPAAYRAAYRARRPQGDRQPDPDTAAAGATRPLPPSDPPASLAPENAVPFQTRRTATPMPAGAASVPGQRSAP
Chain of DnaA (DnaAHis6) (P27902 whole entry, the tested form may be a part): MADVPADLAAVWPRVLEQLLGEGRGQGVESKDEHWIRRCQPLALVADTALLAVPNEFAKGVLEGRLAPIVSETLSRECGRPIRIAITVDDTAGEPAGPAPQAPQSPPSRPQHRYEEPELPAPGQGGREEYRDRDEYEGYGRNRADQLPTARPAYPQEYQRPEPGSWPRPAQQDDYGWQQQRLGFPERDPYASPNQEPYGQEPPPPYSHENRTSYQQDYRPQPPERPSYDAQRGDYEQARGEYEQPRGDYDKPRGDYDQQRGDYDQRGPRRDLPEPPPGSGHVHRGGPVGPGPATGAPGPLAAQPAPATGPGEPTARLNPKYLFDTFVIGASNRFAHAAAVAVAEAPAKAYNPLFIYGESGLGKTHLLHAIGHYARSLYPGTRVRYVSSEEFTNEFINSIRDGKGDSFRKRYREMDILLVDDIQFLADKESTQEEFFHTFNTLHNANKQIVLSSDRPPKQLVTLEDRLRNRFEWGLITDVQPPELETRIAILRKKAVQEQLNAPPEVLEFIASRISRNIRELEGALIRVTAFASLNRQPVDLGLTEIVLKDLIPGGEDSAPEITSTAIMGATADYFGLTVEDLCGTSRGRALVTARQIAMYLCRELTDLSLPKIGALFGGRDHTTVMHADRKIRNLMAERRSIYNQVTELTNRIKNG

Nc1ncnc2c1ncn2[C@@H]1O[C@H](COP(=O)(O)OP(=O)(O)OP(=O)(O)O)[C@@H](O)[C@H]1O [ATP]
SPR of AdpA on immobilised oriC DNA; glutaraldehyde cross-linking of AdpA-oriC c [1]: ATP at the same concentration used for DnaA-binding experiments nearly completely abolished binding of AdpA | SPR of DnaA on immobilised oriC DNA with and without ATP [2]: binds DnaA box(es), particularly weak ones, more efficiently in the presence of ATP

Nc1ncnc2c1ncn2[C@@H]1O[C@H](COP(=O)(O)OP(=O)(O)O)[C@@H](O)[C@H]1O [ADP]
effect on AdpA-oriC complex formation [3]: a similar effect was also observed in the presence of ADP
